Experimental data: ChEMBL document CHEMBL4765455, “Design, synthesis, and biological evaluations of novel 3-amino-4-ethynyl indazole derivatives as Bcr-Abl kinase inhibitors with potent cellular antileukemic activity” (Eur J Med Chem, 2020)

What was measured:
[1] = target: Bcr/Abl fusion protein (Homo sapiens, UniProt P00519); experiment: Inhibition of wild type BCR-ABL (unknown origin) incubated for 40 mins in presence of [gamma33P]ATP by scintillation method; type: protein assay
[2] = target: Macrophage colony-stimulating factor 1 receptor (Homo sapiens, UniProt P07333); experiment: Inhibition of FMS (unknown origin) at 1 uM relative to control
Sequence of Macrophage colony-stimulating factor 1 receptor (P07333 whole entry): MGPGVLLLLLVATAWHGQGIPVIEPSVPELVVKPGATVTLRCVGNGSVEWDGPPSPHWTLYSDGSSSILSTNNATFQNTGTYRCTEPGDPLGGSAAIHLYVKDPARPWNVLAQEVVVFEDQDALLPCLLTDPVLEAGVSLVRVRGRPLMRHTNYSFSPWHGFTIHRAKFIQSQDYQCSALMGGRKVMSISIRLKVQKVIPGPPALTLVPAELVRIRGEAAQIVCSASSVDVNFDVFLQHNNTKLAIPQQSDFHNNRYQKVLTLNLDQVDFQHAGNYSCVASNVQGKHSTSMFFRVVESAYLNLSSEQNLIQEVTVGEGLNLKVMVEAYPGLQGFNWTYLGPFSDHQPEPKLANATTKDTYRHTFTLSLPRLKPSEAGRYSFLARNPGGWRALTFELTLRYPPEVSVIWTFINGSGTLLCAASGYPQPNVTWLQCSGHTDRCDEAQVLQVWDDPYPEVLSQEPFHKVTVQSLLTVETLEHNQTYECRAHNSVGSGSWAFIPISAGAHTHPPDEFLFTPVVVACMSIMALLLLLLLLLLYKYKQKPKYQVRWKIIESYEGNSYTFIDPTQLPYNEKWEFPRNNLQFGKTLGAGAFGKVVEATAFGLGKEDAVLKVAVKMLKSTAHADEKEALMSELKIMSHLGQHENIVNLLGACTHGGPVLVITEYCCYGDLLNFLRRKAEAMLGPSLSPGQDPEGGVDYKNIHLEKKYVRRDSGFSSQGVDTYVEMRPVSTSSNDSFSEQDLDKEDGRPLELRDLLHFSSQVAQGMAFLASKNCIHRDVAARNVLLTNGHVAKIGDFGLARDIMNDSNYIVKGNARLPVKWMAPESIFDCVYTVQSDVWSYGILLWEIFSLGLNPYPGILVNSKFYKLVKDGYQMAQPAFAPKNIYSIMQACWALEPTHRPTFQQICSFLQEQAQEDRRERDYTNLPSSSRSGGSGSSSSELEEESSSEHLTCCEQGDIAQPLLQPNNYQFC

[3] = target: Epidermal growth factor receptor (Homo sapiens) (UniProt P00533); experiment: Inhibition of EGFR (unknown origin) at 1 uM relative to control
Sequence of Epidermal growth factor receptor (Homo sapiens) (P00533 whole entry): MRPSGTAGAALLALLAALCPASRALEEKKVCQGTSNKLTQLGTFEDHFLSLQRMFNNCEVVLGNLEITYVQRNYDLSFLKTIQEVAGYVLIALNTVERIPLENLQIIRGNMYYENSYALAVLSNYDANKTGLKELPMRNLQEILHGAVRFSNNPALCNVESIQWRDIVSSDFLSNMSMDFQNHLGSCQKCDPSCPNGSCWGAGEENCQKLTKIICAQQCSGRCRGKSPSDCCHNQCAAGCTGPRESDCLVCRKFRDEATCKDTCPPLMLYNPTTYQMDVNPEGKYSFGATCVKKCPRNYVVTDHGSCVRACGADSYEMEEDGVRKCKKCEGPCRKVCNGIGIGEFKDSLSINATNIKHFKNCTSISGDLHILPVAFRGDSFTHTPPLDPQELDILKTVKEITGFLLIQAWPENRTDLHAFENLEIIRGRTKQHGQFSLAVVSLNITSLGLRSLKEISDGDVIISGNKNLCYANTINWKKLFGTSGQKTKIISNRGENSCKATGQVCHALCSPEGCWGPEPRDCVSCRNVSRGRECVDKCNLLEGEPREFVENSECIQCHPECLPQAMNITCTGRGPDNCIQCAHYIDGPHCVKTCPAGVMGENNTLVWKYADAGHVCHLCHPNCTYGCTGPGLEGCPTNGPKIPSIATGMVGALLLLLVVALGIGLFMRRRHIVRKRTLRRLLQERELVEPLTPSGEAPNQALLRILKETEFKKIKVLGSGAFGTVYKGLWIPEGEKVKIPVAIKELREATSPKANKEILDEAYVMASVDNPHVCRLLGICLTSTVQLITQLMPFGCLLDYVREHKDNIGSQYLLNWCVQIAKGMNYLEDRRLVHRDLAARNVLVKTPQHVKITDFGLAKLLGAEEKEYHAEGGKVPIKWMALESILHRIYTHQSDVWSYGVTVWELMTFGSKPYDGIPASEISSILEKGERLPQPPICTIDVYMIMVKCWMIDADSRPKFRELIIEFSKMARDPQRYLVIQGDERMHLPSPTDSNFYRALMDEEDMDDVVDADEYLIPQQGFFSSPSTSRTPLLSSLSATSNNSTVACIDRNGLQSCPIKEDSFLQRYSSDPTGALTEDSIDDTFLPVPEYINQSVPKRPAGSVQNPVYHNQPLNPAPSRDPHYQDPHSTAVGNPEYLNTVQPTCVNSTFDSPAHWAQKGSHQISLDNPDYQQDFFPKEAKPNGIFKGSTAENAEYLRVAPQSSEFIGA

[4] = target: Focal adhesion kinase 1 (Homo sapiens) (UniProt Q05397); experiment: Inhibition of FAK/PTK2 (unknown origin) at 1 uM relative to control
[5] = target: Tyrosine-protein kinase JAK2 (Homo sapiens) (UniProt O60674); experiment: Inhibition of JAK2 (unknown origin) at 1 uM relative to control
[6] = target: Tyrosine-protein kinase SYK (Homo sapiens) (UniProt P43405); experiment: Inhibition of SYK (unknown origin) at 1 uM relative to control
[7] = target: Receptor-type tyrosine-protein kinase FLT3 (Homo sapiens, UniProt P36888); experiment: Inhibition of FLT3 (unknown origin) in presence of ATP
[8] = organism: Homo sapiens; experiment: Selectivity index, ratio of IC50 for BRAF (unknown origin) to IC50 for Bcr-Abl (unknown origin)
[9] = test system: K562; experiment: Antiproliferative activity against human K562 cells assessed as cell growth inhibition incubated for 72 hrs by MTT assay; type: functional
[10] = test system: CCRF-CEM; experiment: Antiproliferative activity against human CCRF-CEM cells assessed as cell growth inhibition measured after 48 hrs by SRB assay; type: functional
[11] = target: Bcr/Abl fusion protein (Homo sapiens) (UniProt P00519+P11274); experiment: Inhibition of Bcr-Abl in human K562 cells assessed as reduction in Bcr-Abl phosphorylation incubated for 1 hr by Western blotting analysis; type: cell-based; conditions: dose 0.003-0.3 µM
Sequence of Bcr/Abl fusion protein (Homo sapiens) (P00519 whole entry, looked up, the tested form may be a part): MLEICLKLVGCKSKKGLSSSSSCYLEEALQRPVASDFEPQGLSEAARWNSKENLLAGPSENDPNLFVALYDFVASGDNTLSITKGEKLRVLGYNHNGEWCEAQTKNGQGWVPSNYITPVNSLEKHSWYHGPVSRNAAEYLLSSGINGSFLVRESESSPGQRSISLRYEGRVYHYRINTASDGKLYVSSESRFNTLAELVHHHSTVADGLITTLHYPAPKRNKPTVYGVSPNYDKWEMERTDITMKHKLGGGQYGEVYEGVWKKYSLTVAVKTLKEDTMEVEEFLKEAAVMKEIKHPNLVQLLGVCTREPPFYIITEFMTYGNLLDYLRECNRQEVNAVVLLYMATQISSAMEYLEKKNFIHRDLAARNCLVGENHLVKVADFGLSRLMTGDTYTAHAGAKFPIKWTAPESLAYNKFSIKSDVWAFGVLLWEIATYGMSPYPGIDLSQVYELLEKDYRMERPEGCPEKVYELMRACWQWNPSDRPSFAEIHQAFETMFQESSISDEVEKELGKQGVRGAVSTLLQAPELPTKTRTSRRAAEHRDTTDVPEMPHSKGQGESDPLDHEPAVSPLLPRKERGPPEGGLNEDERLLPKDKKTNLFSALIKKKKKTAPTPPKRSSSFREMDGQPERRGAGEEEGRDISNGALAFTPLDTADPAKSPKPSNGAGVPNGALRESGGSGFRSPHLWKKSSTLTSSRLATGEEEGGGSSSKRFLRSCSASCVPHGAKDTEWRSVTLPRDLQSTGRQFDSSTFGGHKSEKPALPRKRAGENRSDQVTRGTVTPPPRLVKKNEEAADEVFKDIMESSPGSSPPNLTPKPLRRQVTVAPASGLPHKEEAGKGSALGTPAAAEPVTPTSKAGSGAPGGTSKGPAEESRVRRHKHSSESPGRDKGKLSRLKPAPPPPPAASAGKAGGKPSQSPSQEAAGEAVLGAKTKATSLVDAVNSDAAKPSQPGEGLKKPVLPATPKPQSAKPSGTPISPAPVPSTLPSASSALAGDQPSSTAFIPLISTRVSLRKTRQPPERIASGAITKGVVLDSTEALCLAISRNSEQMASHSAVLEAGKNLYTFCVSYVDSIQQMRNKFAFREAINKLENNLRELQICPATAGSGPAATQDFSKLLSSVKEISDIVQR
Sequence of Bcr/Abl fusion protein (Homo sapiens) (P11274 whole entry, looked up, the tested form may be a part): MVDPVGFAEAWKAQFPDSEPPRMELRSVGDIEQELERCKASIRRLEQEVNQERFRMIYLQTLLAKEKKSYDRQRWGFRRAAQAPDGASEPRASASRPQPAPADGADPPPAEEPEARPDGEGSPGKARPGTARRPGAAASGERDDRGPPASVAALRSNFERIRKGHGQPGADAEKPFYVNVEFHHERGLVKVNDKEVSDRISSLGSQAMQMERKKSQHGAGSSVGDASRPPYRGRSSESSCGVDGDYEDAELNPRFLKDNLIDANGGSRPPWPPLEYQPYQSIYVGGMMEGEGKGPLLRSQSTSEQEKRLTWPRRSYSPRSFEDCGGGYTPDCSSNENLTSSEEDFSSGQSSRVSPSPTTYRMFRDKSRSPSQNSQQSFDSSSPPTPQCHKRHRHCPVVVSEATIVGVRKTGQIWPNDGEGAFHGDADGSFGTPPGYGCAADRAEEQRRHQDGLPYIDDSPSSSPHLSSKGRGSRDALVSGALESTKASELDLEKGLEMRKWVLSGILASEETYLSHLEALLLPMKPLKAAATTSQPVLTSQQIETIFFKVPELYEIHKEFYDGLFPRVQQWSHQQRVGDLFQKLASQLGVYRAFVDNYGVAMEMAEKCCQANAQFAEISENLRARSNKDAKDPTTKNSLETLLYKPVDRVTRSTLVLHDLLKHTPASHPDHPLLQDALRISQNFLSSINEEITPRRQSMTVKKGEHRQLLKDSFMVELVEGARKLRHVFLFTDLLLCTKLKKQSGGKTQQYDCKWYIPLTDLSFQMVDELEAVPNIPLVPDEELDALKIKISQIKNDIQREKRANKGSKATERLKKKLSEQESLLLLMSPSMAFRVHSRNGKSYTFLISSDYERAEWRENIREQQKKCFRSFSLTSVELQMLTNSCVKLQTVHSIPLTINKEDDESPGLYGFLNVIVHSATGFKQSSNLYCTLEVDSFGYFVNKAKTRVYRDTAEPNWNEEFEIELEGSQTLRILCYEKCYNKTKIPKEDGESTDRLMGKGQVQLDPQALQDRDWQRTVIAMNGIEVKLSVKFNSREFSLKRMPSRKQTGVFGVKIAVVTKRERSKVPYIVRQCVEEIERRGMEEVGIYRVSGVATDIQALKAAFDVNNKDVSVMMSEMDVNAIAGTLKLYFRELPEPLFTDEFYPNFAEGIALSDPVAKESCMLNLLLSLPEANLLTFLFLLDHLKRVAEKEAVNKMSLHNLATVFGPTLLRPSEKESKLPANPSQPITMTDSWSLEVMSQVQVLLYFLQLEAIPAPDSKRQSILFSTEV

[12] = target: Voltage-gated inwardly rectifying potassium channel KCNH2 (Homo sapiens, UniProt Q12809); experiment: Inhibition of human ERG incubated for 4 hrs by competitive fluorescence tracer binding based assay
[13] = organism: Homo sapiens; experiment: Selectivity index, ratio of IC50 for human ERG to EC50 for ABL1 (unknown origin) expressed in human HEK293 cells; type: cell-based
[14] = organism: Homo sapiens; experiment: Potency index, ratio of test compound IC50 to E4031 IC50 for human […]
[15] = Tmax in ICR mouse at 10 mg/kg, po measured up to 8 hrs by LC-MS/MS analysis; type: ADME, organism-based; conditions: in vivo
[16] = Cmax in ICR mouse at 10 mg/kg, po measured up to 8 hrs by LC-MS/MS analysis; type: ADME, organism-based; design: route oral, dose 10 mg/kg, time <=8; conditions: in vivo
[17] = Mean residence time in ICR mouse at 5 mg/kg, iv measured up to 8 hrs by LC-MS/MS analysis; type: ADME, organism-based; conditions: in vivo

Sequence of Bcr/Abl fusion protein (P00519 whole entry, the tested form may be a part): as the sequence (P00519 whole entry, looked up, the tested form may be a part) above
Sequence of Bcr/Abl fusion protein (P11274 whole entry, further chain, the tested form may be a part): as the sequence (P11274 whole entry, looked up, the tested form may be a part) above

Work on `Nc1n[nH]c2cccc(C#Cc3cccc(NC(=O)c4ccc(N5CCOCC5)c(C(F)(F)F)c4)c3)c12` yielded an IC50 [1] of 4.6 nM, an inhibition [2] of 87.8% and an inhibition [3] of 43.4%. The inhibition [4] was under 30%, the inhibition [5] was under 30% and the inhibition [6] was under 30%. For the same compound, the IC50 [7] was 535 nM, the Ratio IC50 [8] was 26.5 and the GI50 [9] was 20 nM. The GI50 [10] was 1360 nM, the Activity [11] was “Dose-dependent effect” and the IC50 [12] was 3400 nM. The Ratio IC50/EC50 [13] was 233, the Ratio IC50 [14] was 310 and the Tmax [15] was 0.6 h. The Cmax [16] was 113 ng/mL and the MRT [17] was 4.7 h.
